{"source": "patent US9260759B2", "about": "“Pyrazoloanthrone and derivatives thereof for the treatment of cancers expressing MISRII” (The General Hospital Corporation, priority 2007, dated 2016)", "key": {"[1]": {"biological_target": "T1, rat MISRII (Rattus norvegicus, UniProt Q62893)", "T1 construct": "expressed in transfected cells; host or cells: COS7", "T1 sequence (Q62893 18-557)": "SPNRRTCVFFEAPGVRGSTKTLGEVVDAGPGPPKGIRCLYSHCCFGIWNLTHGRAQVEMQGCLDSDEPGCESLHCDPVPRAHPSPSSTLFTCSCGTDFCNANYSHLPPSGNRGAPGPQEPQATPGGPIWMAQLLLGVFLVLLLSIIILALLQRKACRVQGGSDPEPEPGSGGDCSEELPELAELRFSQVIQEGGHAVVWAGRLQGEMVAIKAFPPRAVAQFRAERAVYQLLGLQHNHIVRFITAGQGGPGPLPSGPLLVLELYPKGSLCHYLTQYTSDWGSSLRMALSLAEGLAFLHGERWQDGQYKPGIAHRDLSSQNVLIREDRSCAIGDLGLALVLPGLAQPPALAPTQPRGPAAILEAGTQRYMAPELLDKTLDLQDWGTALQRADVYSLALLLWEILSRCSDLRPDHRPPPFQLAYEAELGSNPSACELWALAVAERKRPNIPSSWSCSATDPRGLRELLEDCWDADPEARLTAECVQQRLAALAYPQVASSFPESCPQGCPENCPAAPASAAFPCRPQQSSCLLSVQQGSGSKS", "assay": "BRE-luciferase reporter assay in COS7 cells transfected with MISRII", "type": "cell-based", "from_the_text": "COS7 cells were transiently transfected with MISRH, BRE-Luciferase and phRL-CMV. […] Control cells were transfected with a control plasmid (EGFP-N1 plasmid) instead of the receptor plasmid to keep the total DNA transfected constant. The results shown are the fold-induction over vehicle treated cells and normalized to phRL-CMV expression to correct for variations in cell number and transfection efficiency. […] The results represent the mean values from three independent experiments performed in triplicates (Error bars represent SEM, *p<0.05, **p<0.001).\nTo identify molecules that interact with the MISRII, we developed a reporter assay where binding to MISRII activates a firefly luciferase reporter driven by the BMP-responsive element (BRE) promoter kindly provided by Dr. Peter ten Dijke (The Netherlands Cancer Institute, The Netherlands) The BMP promoter region on mouse M. mus is located on chromosome 2 (Chr2) and corresponds to RefSeq No: NT—039207.6 93504644-93506272 (SEQ ID NO:1). The BRE-luciferase reporter (Korchynskyi and ten Dijke, 2002, Logeart-Avramoglou, 2006) has multiple optimized BMP response elements (3 SBE, 7 GC, and 4 CAGC) driving the expression of the firefly luciferase. This reporter construct together with a control Renilla luciferase reporter phRL-CMV (Promega, Madison Wis.) and a rat MISRII cDNA expression construct (Teixeira, 1996) were transiently transfected into COST cells and plated in 384 well plates. Primary screens were performed at the Harvard Institute of Chemistry and Cell Biology screening facility. Compounds from chosen libraries were added at a volume of 100 nl at 5 mg/ml concentration in DMSO into 30 μl cell media and cultured for 24 h at 37° C., after which the luciferase activity was measured with reagents from Promega according to the manufacturer's instructions. A hit was identified as causing a fold induction over the plate median and each compound was tested in duplicate in separate plates. MIS was used to control for intra- and inter-assay variability.\nCOS7 cells were plated at a density of 5000 cells/well in 96-well plates for secondary screens. The day after plating cells were transfected with rat MISRII receptor or EGFP-N1 (Clontech, Mountain View Calif.) together with BRE firefly luciferase reporter construct and phRL-CMV using TransIT-LT1 transfection reagent (Mirus Bio Corporation, Madison Wis.). […] Results were obtained using the Dual Luciferase reporter assay according to the manufacturer's instructions (Promega). Plates were read in a Wallac Victor2 luminometer (PerkinElmer, Wellesley Mass.)."}, "[2]": {"test_system": "c-jun", "assay": "Western blot of anisomycin-induced c-jun phosphorylation in MOVCAR cells", "type": "cell-based, mouse", "protocol": "(§1) The results are representative of several experiments.\n(§2) Cells were washed in PBS and lysates were prepared in 1× Passive lysis buffer (PLB) provided with the Dual luciferase reporter assay kit (Promega). The lysates were cleared by centrifugation and the protein concentration was determined by Bradford assay (Bio-Rad, Hercules Calif.). […] of protein were loaded onto a NuPAGE 4-12% Bis-Tris gradient gel with MOPS-buffer (Invitrogen, Carlsbad Calif.) for polyacrylamide gel electrophoresis. Following transfer to a nitrocellulose by electroblotting, the membrane was blocked in 5% milk Tris-buffered saline/Tween20 (TBS-T) for 1 h at room temperature and incubated with primary antibody (pJNK, c-jun and phosph c-jun antibodies were purchased from Cell Signalling, Danvers, Mass.; amd JNK antibody was published from Santa Cruz Biotechnology, Calif.) overnight at 4° C. in 5% BSA followed by incubation with secondary horseradish peroxidase conjugated anti-rabbit antibody (Jackson ImmunoResearch, Westgrove Pa.) for 1 h. Immunoreactive proteins were detected by enhanced chemiluminescence (Pierce, Rockford Ill.). Anisomycin was purchased from Calbiochem.\n(§3) The known Jun kinase activator anisomycin was used as a positive control (Hazzalin, 1998). […] Further, MIS had no effect on phosphorylation of JNK by anisomycin."}, "[3]": {"test_system": "JNK", "assay": "Immunoblot of JNK phosphorylation in MOVCAR7 cells", "type": "cell-based, mouse", "protocol": "as §1, §2, §3"}, "[4]": {"test_system": "MOVCAR7 cells", "assay": "MTT proliferation assay, MOVCAR7 cells", "type": "cell-based", "conditions": "Mus musculus, 168 h", "protocol": "Cells were plated in 96-well plates and treated the day after. Seven days after plating the cell survival was measured using 3-(4,5-dimethylthiazol-2-yl)-2,5-diphenyltetrazolium bromide substrate and measuring the absorbance at 550 nm.\n(Connolly, 2003). The 4306 cells were provided by Dr. Daniela Dinulescu, Brigham and Women's (Boston) (30). Cells were plated at a density of 1000 cells/well in 96-well plates and treated 24 h later. The cell proliferation was measured after 7 days by registering the absorbance at 550 nm. Paclitaxel was manufactured by Ivax Pharmaceuticals and obtained from the MGH pharmacy.\nThe cells were treated for 7 days and the proliferation was measured by spectrophotometry. To exclude cytotoxic effects on the cells unrelated to MIS signal transduction, we used untransfected COS7 cells as a negative control. […] Paclitaxel is used in treatment of a wide range of tumors, but the side effects can be debilitating (Pieretti-Vanmarcke, 2006a, Pieretti-Vanmarcke, 2006b)."}, "[5]": {"biological_target": "T2, MISRIIK228R (Rattus norvegicus, UniProt Q62893, K228R)", "T2 construct": "expressed in transfected cells; host or cells: COS7", "T2 sequence (Q62893 18-557 K228R)": "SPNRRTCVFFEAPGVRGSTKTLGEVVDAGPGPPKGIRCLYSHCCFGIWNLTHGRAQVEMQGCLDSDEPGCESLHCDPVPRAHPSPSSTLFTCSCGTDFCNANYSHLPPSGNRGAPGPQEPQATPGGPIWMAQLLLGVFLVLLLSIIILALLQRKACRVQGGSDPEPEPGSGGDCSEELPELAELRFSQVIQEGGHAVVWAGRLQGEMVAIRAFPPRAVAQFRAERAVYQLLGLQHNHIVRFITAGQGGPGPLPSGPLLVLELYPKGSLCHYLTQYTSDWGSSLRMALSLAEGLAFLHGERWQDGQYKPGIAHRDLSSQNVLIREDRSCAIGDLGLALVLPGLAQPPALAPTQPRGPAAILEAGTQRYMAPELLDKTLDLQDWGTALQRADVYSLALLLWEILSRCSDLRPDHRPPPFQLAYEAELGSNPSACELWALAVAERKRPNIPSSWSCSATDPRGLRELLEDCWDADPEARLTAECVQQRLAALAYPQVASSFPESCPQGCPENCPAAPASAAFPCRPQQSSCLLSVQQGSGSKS", "assay": "BRE-luciferase reporter assay in COS7 cells with kinase-deficient receptor MISRIIK228R", "type": "cell-based", "conditions": "K228R receptor overexpressed, COS7, 24 hrs, agent alone", "from_the_text": "Results shown represent the mean values from four independent experiments performed in triplicates (Error bars represent standard error of the mean, *, P<0.05)."}, "[6]": {"biological_target": "T3, endogenous MISRII (Mus musculus, UniProt Q8K592)", "T3 construct": "a mouse ovarian cancer cell line, MOVCAR7, that expresses endogenous MISRII; endogenous in cells; host or cells: MOVCAR7 (mouse ovarian cancer cell line)", "T3 sequence (Q8K592 16-568)": "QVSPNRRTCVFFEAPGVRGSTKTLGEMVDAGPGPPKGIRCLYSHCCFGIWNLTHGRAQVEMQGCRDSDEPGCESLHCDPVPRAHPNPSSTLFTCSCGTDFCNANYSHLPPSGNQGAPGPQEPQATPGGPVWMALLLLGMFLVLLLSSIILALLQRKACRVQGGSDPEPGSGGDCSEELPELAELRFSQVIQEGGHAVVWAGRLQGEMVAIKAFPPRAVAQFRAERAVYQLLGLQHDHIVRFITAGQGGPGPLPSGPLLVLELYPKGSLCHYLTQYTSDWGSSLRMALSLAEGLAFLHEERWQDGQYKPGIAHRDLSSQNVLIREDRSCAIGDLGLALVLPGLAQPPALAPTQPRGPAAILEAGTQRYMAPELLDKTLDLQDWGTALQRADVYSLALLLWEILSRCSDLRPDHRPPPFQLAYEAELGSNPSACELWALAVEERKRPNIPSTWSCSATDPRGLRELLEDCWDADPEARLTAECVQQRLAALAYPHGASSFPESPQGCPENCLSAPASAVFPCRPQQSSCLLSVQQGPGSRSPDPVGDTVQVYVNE", "assay": "BRE-luciferase reporter assay in MOVCAR7 cells expressing endogenous MISRII", "type": "cell-based", "conditions": "5 μg/ml MIS, MOVCAR7, 24 h"}}, "note": "Read-outs that look alike come from different tables or passages of the source."}
{"molecule": "CCOc1nc(NC(=O)Cc2cc(OC)ccc2OC)cc(N)c1C#N", "note": "[JNK inhibitor VIII, reference compound]", "values": [{"measurement": "effect on BRE-luciferase when combined with MIS", "setting": "[1]; JNK inhibitor VIII 5, 25 or 50 μM with MIS", "result": "no further effect"}, {"measurement": "activation of BRE-luciferase", "setting": "[1]; JNK inhibitor VIII at 5, 25 or 50 μM alone, COS7", "result": "did not result in any activation"}, {"measurement": "inhibiting phosphorylation of c-jun, compared with SP600125", "setting": "[2]", "result": "much more effective"}, {"measurement": "c-jun phosphorylation induced by 500 nM anisomycin", "setting": "[2]; pre-treatment 25 uM", "result": "inhibited"}]}
{"molecule": "COc1ccc(C[C@H]2NC[C@H](O)[C@H]2OC(C)=O)cc1", "note": "[anisomycin, reference compound]", "values": [{"measurement": "phosphorylation of JNK (positive control)", "setting": "[3]; 500 nM anisomycin, 30 min", "result": "strong activation"}]}
{"molecule": "CC(=O)O[C@H]1C(=O)[C@@]2(C)[C@H]([C@H](OC(=O)c3ccccc3)[C@]3(O)C[C@H](OC(=O)[C@H](O)[C@@H](NC(=O)c4ccccc4)c4ccccc4)C(C)=C1C3(C)C)[C@]1(OC(C)=O)CO[C@@H]1C[C@@H]2O", "note": "[paclitaxel]", "values": [{"measurement": "IC50", "setting": "[4]; read-out: IC50 of paclitaxel combined with SP600125", "result": 0.21, "unit": "nM"}, {"measurement": "IC50", "setting": "[4]; MOVCAR7, 7 days, MTT, read-out: IC50 of paclitaxel alone", "result": 0.81, "unit": "nM"}]}
{"molecule": "MIS: Recombinant human MIS prepared from Chinese hamster ovary cells stably transfected with the human MIS gene (protein) LRAEEPAVGTSGLIFREDLDWPPGSPQEPLCLVALGGDSNGSSSPLRVVGALSAYEQAFLGAVQRARWGPRDLATFGVCNTGDRQAALPSLRRLGAWLRDPGGQRLVVLHLEEVTWEPTPSLRFQEPPPGGAGPPELALLVLYPGPGPEVTVTRAGLPGAQSLCPSRDTRYLVLAVDRPAGAWRGSGLALTLQPRGEDSRLSTARLQALLFGDDHRCFTRMTPALLLLPRSEPAPLPAHGQLDTVPFPPPRPSAELEESPPSADPFLETLTRLVRALRVPPARASAPRLALDPDALAGFPQGLVNLSDPAALERLLDGEEPLLLLLRPTAATTGDPAPLHDPTSAPWATALARRVAAELQAAAAELRSLPGLPPATAPLLARLLALCPGGPGGLGDPLRALLLLKALQGLRVEWRGRDPRGPGRAQRSAGATAADGPCALRELSVDLRAERSVLIPETYQANNCQGVCGWPQSDRNPRYGNHVVLLLKMQVRGAALARPPCCVPTAYAGKLLISLSEERISAHHVPNMVATECGCR", "values": [{"measurement": "BRE-luciferase expression, fold induction", "setting": "[1]; MIS 0.5 ug/ml alone, MISRII-transfected COS7, 24 h", "result": "greater than ten-fold"}, {"measurement": "activation of BRE-luciferase with kinase-deficient receptor", "setting": "[5]", "result": "neither MIS nor SP600125 activates BRE-luciferase"}, {"measurement": "increase of BRE activity compared to untreated cells", "setting": "[6]", "result": 2, "unit": "fold"}, {"measurement": "phosphorylation of JNK", "setting": "[3]; 5 μg/ml MIS, 30 min", "result": "no phosphorylation beyond background"}, {"measurement": "effect of MIS on phosphorylation of JNK by anisomycin", "setting": "[3]; MIS with anisomycin", "result": "no effect"}]}
